Converted amounts (≈) assume the structure as drawn. Read-outs that look alike come from different tables or passages of the source.
Assays:
[1] = test system: Haemophilus influenzae; assay: Susceptibility testing, NCCLS microdilution MIC; format: cell-based; settings: Haemophilus influenzae, ATCC31517; H. influenzae ATCC 31517; Example A′; read-out: MIC H. influenzae
[2] = test system: Enterococcus faecalis; assay: Susceptibility testing, NCCLS microdilution MIC; format: cell-based; settings: Enterococcus faecalis, ATCC29212; E. faecalis ATCC 29212; Example A′; read-out: MIC E. faecalis
[3] = test system: Bacteroides fragilis; assay: Susceptibility testing, NCCLS microdilution MIC (anaerobe); format: cell-based; settings: Bacteroides fragilis, ATCC25285; B. fragilis ATCC 25285; Example A′; read-out: MIC B. fragilis
[4] = test system: Staphylococcus aureus; assay: Susceptibility testing, NCCLS microdilution MIC; format: cell-based; settings: ATCC25923, S. aureus ATCC 25923, Example A′, read-out: MIC S. aureus
[5] = test system: E. coli transcription/translation (bacterial protein synthesis, E. coli S30 extract); assay: In vitro inhibition of E. coli transcription and translation assay (TT), cell-free; format: biochemical; settings: for IC50: cell-free E. coli S30 extract; for In vitro inhibition of E. coli transcription and translation compared with literature azepine compound VIII(18): cell-free TT assay, comparison in words
Procedure: Inhibition of bacterial protein synthesis was assayed in a cell-free E. coli transcription/translation assay.
Stock solutions of compounds were prepared at 10 mg/mL in DMSO. The assay contained less or equal to 1% (v/v) final concentration of DMSO. Three-fold serial dilutions were prepared in assay buffer at 6-fold final concentration in 96 well microtiter plate.
All vials, tubes and microtiter plates are RNase free. The Mix was freshly prepared with 10 μl H2O, 10 μl AA-M, 10 μl AA-L, 80 μl Premix and 50 μl ES30 extract. The assay was performed in a 96-well plate. Five microliters of compounds at various concentrations (6-fold final assay concentration) were preincubated with 20 μl of the mix for 5 min at room temperature. The reaction started with addition of 5 μl of plasmid (˜0.1 mg/mL pGEMBGAL), and kept at 37° C. for 1 h followed by the addition of 150 μl of OPNG solution (4 mg/mL OPNG in 0.1M NaPi, pH 7.5, 1 mM MgCl2 and 2 mM DTT). 150 μl of the reaction was transferred to a ½-area plate and increase in absorption at OD420 nm was monitored for 10 min using a Spectramax plate reader (Molecular Devices). The slope of absorption change over time is corresponding to the pathway activity.
The E. coli S30 Extract for circular DNA kit was purchased from Promega. Original plasmid pGEMBGAL was obtained from Promega and amplified via Maxiprep in house. 2-Nitrophenyl β-D-galactopyranoside was obtained from Sigma. Clindamycin HCl (USP) was purchased from Spectrum.
The inhibition are expressed as percent of control activity (without inhibitor) which is calculated according to equation (1): Inhibition %=(compound slope-blank slope)/(control slope-blank slope)*100 (1)
All IC50s were determined by fitting the experimental data to equation (2) using software DeltaGraph (DeltaPoint Inc.): Y=Y0/(1+(X/IC50)[…])+c (2)
Where Y: activity at given inhibitor concentration; Y0: activity without inhibitor; X: inhibitor concentration; d: slope; c: constant.
Lincosamides inhibit bacterial growth through binding to the bacterial 50S ribosome, thus inhibiting peptide bond formation. The transcription/translation assay provides a screening tool to measure inhibition of bacterial protein synthesis pathway at the target level without the complication of differences in membrane permeability.

[6] = test system: Staphylococcus aureus Smith; assay: Efficacy in murine S. aureus septicemia; format: in vivo, ICR mice; settings: for Efficacy in the murine S. aureus septicemia model relative to clindamycin: IV route of administration, compound given 1 hour after inoculation; for Efficacy in the murine S. aureus septicemia model relative to clindamycin / Efficacy in the murine S. aureus septicemia model by oral route: mice; for ED50: Staphylococcus aureus, murine S. aureus Smith septicemia, dosed 1 hour after inoculation, mortality 7 days; for Efficacy in the murine S. aureus septicemia model by oral route: oral route of administration
Procedure: (§1) Efficacy studies were performed in an S. aureus murine septicemia model according to models published elsewhere (Goldstein, B. P., G. Candiani, T. M. Arain, G. Romano, I. Ciciliato, M. Berti, M. Abbondi, R. Scotti, M. Mainini, F. Ripamonti, and et al. 1995. Antimicrobial activity of MDL 63,246, a new semisynthetic glycopeptide antibiotic Antimicrob. Agents Chemother. 39:1580-1588; Misiek, M., T. A. Pursiano, F. Leitner, and K. E. Price 1973. Microbiological properties of a new cephalosporin, BL-S 339:7-(phenylacetimidoyl-aminoacetamido)-3-(2-methyl-1,3,4-thiadiazol-5-ylthio methyl)ceph-3-em-4-carboxylic acid Antimicrob. Agents Chemother. 3:40-48).
Compounds were dissolved in 2% Tween 80 for oral dosing or 0.9% NaCl solution for intravenous dosing. Compounds were administered at 1 hour after bacterial inoculation. Vancomycin or ampicillin were used as controls.
(§2) Male or female ICR mice weighing 22±2 g from MDS Pharma Services were used for the evaluation. Food and water was given ad libitum. Groups of 6 mice weighing […] were used for the experiment. Mice were inoculated intraperitoneally with Staphylococcus aureus Smith at 4 104 CFU in 0.5 ml of Brain Heart Infusion Broth (Difco) containing 5% mucin (Sigma). Mortality was recorded once daily for 7 days following bacterial inoculation.
as §1, with “39:1580-1588.;” for “39:1580-1588;”, “339: 7-(phenylacetimidoyl-aminoacetamido)-3-(2-methyl-1,3,4-thiadiazol-5-ylthio” for “339:7-(phenylacetimidoyl-aminoacetamido)-3-(2-methyl-1,3,4-thiadiazol-5-ylthio”
as §2, with “mL” for “ml”

[7] = intravenous administration, read-out: ED50, IV
[8] = oral administration, read-out: ED50, PO

Structure (SMILES)	MIC [1] [µg/mL]	MIC [2] [µg/mL]	MIC [3] [µg/mL]	MIC [4] [µg/mL]	IC50 [5] [nM]	In vitro inhibition of E. coli transcription and translation compared with literature azepine compound VIII(18) [5]	Efficacy in the murine S. aureus septicemia model relative to clindamycin [6]	ED50 [6, 7] [mg/kg]	ED50 [6, 8] [mg/kg]	Efficacy in the murine S. aureus septicemia model by oral route [6]
CS[C@H]1O[C@H]([C@H](NC(=O)C2CC[C@H](CCCCF)CCN2)C(C)C)[C@H](O)[C@H](O)[C@H]1O (stereo in doubt) [Example 4′, 5-(4-Fluoro-butyl)-azepane-2-carboxylic acid [2-methyl-1-(3,4,5-trihydroxy-6-methylsulfanyl-tetrahydro-pyran-2-yl)-propyl]-amide]	0.5 (≈ 1.11 µM)	0.125 (≈ 0.277 µM)	1 (≈ 2.22 µM)	0.06 (≈ 0.133 µM)	490	markedly superior	three to greater than five fold better	0.28		
CS[C@H]1O[C@H]([C@H](NC(=O)C2CC[C@H](CCCF)CCN2)C(C)C)[C@H](O)[C@H](O)[C@H]1O (some centres unmarked) [Example 6′]	2 (≈ 4.58 µM)	0.25 (≈ 0.573 µM)	1 (≈ 2.29 µM)	0.06 (≈ 0.137 µM)	760	markedly superior	three to greater than five fold better	0.28		
CS[C@H]1O[C@H]([C@H](NC(=O)C2CC[C@H](CCCCF)CCN2)[C@H](C)Cl)[C@H](O)[C@H](O)[C@H]1O (stereo in doubt) [Example 3′, 5-(4-Fluoro-butyl)-azepane-2-carboxylic acid [2-chloro-1-(3,4,5-trihydroxy-6-methylsulfanyl-tetrahydro-pyran-2-yl)-propyl]-amide]	0.25 (≈ 0.531 µM)	0.06 (≈ 0.127 µM)	0.5 (≈ 1.06 µM)	0.03 (≈ 0.0637 µM)	190	markedly superior	three to greater than five fold better	0.32		
COCCC[C@@H]1CCN[C@H](C(=O)N[C@@H]([C@H]2O[C@H](SC)[C@H](O)[C@@H](O)[C@H]2O)[C@H](C)Cl)CC1 [Example 13′, 5-(3-Methoxy-propyl)-azepane-2-carboxylic acid [2-chloro-1-(3,4,5-trihydroxy-6-methylsulfanyl-tetrahydro-pyran-2-yl)-propyl]-amide]	1 (≈ 2.13 µM)	0.5 (≈ 1.07 µM)	4 (≈ 8.53 µM)	0.06 (≈ 0.128 µM)	830	markedly superior	three to greater than five fold better	0.28	6.84	demonstrated the potential for use of the compounds as orally administered therapeutic agents
CS[C@H]1O[C@H]([C@H](NC(=O)C2CC[C@H](CCCC#N)CCN2)[C@H](C)Cl)[C@H](O)[C@H](O)[C@H]1O (stereo in doubt) [Example 7′, 5-(3-Cyano-propyl)-azepane-2-carboxylic acid [2-chloro-1-(3,4,5-trihydroxy-6-methylsulfanyl-tetrahydro-pyran-2-yl)-propyl]-amide]	0.5 (≈ 1.08 µM)	0.25 (≈ 0.539 µM)	4 (≈ 8.62 µM)	0.125 (≈ 0.269 µM)	320	markedly superior	three to greater than five fold better	0.29	> 30	
CS[C@H]1O[C@H]([C@H](NC(=O)C2CC[C@H](CCCF)CCN2)[C@H](C)Cl)[C@H](O)[C@H](O)[C@H]1O (stereo in doubt) [Example 5′, 5-(3-Fluoro-propyl)-azepane-2-carboxylic acid [2-chloro-1-(3,4,5-trihydroxy-6-methylsulfanyl-tetrahydro-pyran-2-yl)-propyl]-amide]	0.25 (≈ 0.547 µM)	0.06 (≈ 0.131 µM)	0.25 (≈ 0.547 µM)	0.03 (≈ 0.0656 µM)	2410	markedly superior	three to greater than five fold better	0.18	6.84	demonstrated the potential for use of the compounds as orally administered therapeutic agents

Source: US7361743B2 (Pfizer Inc, priority 2004, dated 2008)
